Results on 14 compounds are retold here after patent US20090239877A1, “NOVEL 1,2,4-TRIAZOLE DERIVATIVES AND PROCESS OF MANUFACTURING THEREOF” (AETERNA ZENTARIS GmbH, priority 2008, published 2009).

The target of experiment [1] is T1, human GHS-R 1a (Homo sapiens, UniProt Q92847). The experiment in a line: GHS-R 1a receptor-ligand binding assay (membrane preparations from transfected LLC PK-1 cells). On the set-up: expressed in transfected cells. Particulars: displacement of 125I-His9-ghrelin; plasma membranes of LLC PK-1 cells transiently transfected with human GHS-R 1a; mean of at least two independent experiments in triplicates. Here is the method:
II) GHS-R 1a Receptor-Ligand Binding Assay (Membrane Preparations from Transfected LLC PK-1 Cells)
The GHS-R 1a receptor binding/affinity studies were performed according to Guerlavais et al. (J. Med. Chem. 2003, 46: 1191-1203).
Isolated plasma membranes from LLC PK-1 cells, a renal epithelial cell line originally derived from porcine kidneys (ECACC No. 86121112) (10 μg of protein), that were transiently transfected with human GHS-R 1a cDNA (Guerlavais et al., J. Med. Chem. 2003, 46: 1191-1203), were incubated in homogenization buffer HB [50 mM Tris (pH 7.3), 5 mM MgCl2, 2.5 mM EDTA, and 30 μg/mL bacitracin (Sigma)] for 60 min at 25° C. (steady-state conditions) with […] ^125I-His^9-ghrelin (Amersham) in the presence or absence of competing compounds (compounds of the invention).
Nonspecific binding was defined using an excess (10^−6 M) of ghrelin. The binding reaction was stopped by addition of 4 mL of ice-cold HB followed by rapid filtration over Whatman GP/C filters presoaked with 0.5% polyethyleneimine to prevent excessive binding of radioligand to the filters. Filters were rinsed three times with 3 mL of icecold wash buffer [50 mM Tris (pH 7.3), 10 mM MgCl2, 2.5 mM EDTA, and 0.015% (w/v) X-100 Triton], and the radioactivity bound to membranes was measured in a gammacounter (Kontron Analytical Gamma Matic, Automatic gamma counting system).
The concentration of test compounds required to inhibit radiolabelled ghrelin binding by 50% (IC50) was determined by fitting competitive binding curves using non-linear regression (PRISM 3.0, Graph Pad San Diego, USA).
In the following table 2 results obtained for selected compounds of the invention are presented in comparison to an example of the prior art. IC50 values given are the mean of at least two independent experiments performed in triplicates.
Background: In a radioligand displacement assay an active substance lowers the binding of a labelled ligand.

For experiment [2], the target named is T1, human GHS-R 1a. The experiment in a line: In vitro intracellular calcium release assay using human GHS-R 1a transfected CHO cells. It is filed as cell-based. Set-up: expressed in transfected cells; host or cells: CHO-K1 Chinese hamster ovary cells (ATCC No. CCL-61), transient transfection by electroporation. Particulars: for activation at 1 µM: intracellular calcium release, compound at 10^-6 M, relative to basal level (0%) and 1 μM ghrelin (100%); for EC50: agonists, dose-response curve of intracellular calcium release. As for the experimental part:
The ability to properly activate the receptors is assessed for any compound of the invention by comparing the degree of activation (increase of intracellular calcium) of GHS-R 1a by the compound to be tested (at 10^−6 M concentration) to the degree of activation (increase of intracellular calcium) of GHS-R 1a by 10^−6 M ghrelin (100%) and to the basal level (0%). Such assessment can be readily performed by the skilled artisan due to his expert knowledge. The output is a percentage value for each compound to be tested. […]
III) In Vitro Intracellular Calcium Release Assay Using Human GHS-R 1a Transfected CHO Cells
The potential of the compounds of the invention to modulate GHS receptor activity was assessed by an in vitro intracellular Calcium release assay employing CHO cells that were transfected with human GHS-R 1a.
Release of intracellular calcium or inhibition thereof was measured using the fluorescent calcium indicator assay (FLIPR) and Fluo-4 AM.
CHO cells (CHO-KI Chinese Hamster Ovary cell line, ATCC No. CCL-61) were transiently transfected with human GHS-R 1a cDNA by electroporation and plated into 96-well black bottom plates (Corning 3603) (80,000 cells/well). Transient transfections were performed using the Easyject Optima Electroporator (Equibio), according to the manufacturer's instructions.
Transfected cells were grown in Dulbecco's modified Eagle's medium without phenol red, supplemented with 10% (v/v) non-essential amino acids, […] glutamine and streptomycin-penicillin (250 μg/ml-250 u/ml) (all purchased from Cambrex) at 37° C., 5% CO2 in a humidified atmosphere for 24 hours.
After incubation, transfected cells were washed with 150 μl Buffer A [Hanks' balanced salt solution (Sigma H-6648), 0.5% (v/v) BSA (Sigma A-7906), 20 mM CaCl2, 2.5 mM probenecid (pH 7.4, dissolved in 1 M NaOH) (Sigma P-8761)] and were then loaded with fluorescent calcium indicator Fluo-4 AM (10^−6 M) (Interchim UP72972) prepared in Buffer A, additionally containing 0.06% pluronic acid (Molecular probes P-6867) (a […] detergent which facilitates Fluo-4AM ester loading). (Loading: 100 μl per well of Buffer A containing 120 μl/ml Pluronic Acid and 1 μM Fluo-4AM was added to the cells).
After loading with Fluo-4 AM, transfected cells were incubated for 1 hour in the dark at 37° C.
Compounds to be tested were dissolved in Buffer A in triplicates at a concentration of 10^−6 M and distributed into another 96-well plate (Fisher Labosi A1210500).
Following incubation, excess Fluo-4AM was removed, 100 μl of Buffer A was added to each well at room temperature and immediately removed by aspiration. This was then repeated, before adding 50 μl Buffer A to each well.
Transfected cells were further incubated room temperature for 30 min to allow complete de-esterification of intracellular Fluo-4AM esters.
Subsequently, both plates, the black-bottom plate containing transfected cells and the microtiter plate containing the compounds to be tested, were then placed into a temperature-regulated (25° C.) FlexStation machine (benchtop scanning fluorometer Flex Station II, Molecular Devices, Sunnyvale, Calif., USA) for fluorescence output measurements.
Basal fluorescence output from the transfected cells was measured for 15 sec and then 50 μl of the compounds to be tested were automatically distributed into the wells containing the transfected cells. The fluorescence output was then recorded for a further 45 sec.
Excitation and emission wavelengths were 485 nm and 525 nm, respectively. Basal fluorescence intensity of Fluo-4AM-loaded transfected cells without compounds to be tested varied between 800-1200 arbitrary units, whereas maximal fluorescence output of dye-loaded transfected cells upon incubation with the compounds to be tested varied between 5000-7000 arbitrary units and was equivalent to that achieved by stimulation of dye-loaded transfected cells with 10^−6 M ghrelin. […]
On the technique in general: A change in cytosolic calcium serves as a functional read-out for many receptors and channels.

T1 sequence (Q92847 whole entry): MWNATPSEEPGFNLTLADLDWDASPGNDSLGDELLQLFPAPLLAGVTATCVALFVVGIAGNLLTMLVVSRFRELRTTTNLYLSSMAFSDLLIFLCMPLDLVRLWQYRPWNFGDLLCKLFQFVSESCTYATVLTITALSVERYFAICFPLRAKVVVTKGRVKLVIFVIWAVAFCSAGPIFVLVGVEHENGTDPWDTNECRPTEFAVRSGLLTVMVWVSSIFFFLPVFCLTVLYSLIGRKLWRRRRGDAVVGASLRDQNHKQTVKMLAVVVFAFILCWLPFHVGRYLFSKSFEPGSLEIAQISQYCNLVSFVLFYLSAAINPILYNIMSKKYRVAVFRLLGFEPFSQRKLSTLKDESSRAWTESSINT

With `COc1cccc(Cn2c(CCCc3ccccc3)nnc2[C@@H](Cc2c[nH]c3ccccc23)NC(=O)C(C)(C)N)c1` [Compound 1, N-((R)-1-(4-(3-methoxybenzyl)-5-(3-phenylpropyl)-4H-1,2,4-triazol-3-yl)-2-(1H-indol-3-yl)ethyl)-2-amino-2-methylpropanamide], at human GHS-R 1a [1], the IC50 (in general, the concentration that inhibits the measured activity by half) was found to be 380 nM. Further, on human GHS-R 1a [2], the activation at 1 µM amounted to 47%.
In turn, `COc1ccc(Cn2c(CCc3ccccc3)nnc2[C@@H](Cc2c[nH]c3ccccc23)NC(=O)[C@H]2CNCCN2)cc1` [Compound 2, (2R)-N-((R)-1-(4-(4-methoxybenzyl)-5-phenethyl-4H-1,2,4-triazol-3-yl)-2-(1H-indol-3-yl)ethyl)piperazine-2-carboxamide] gave an IC50 on human GHS-R 1a [1] of 143 nM. Besides, at human GHS-R 1a [2], the EC50 – broadly, the concentration at which the effect is half-maximal – stood at 17 nM and the activation at 1 µM worked out at 40%.
The like results for `COc1ccc(Cn2c(CCc3cc4ccccc4[nH]3)nnc2[C@@H](Cc2c[nH]c3ccccc23)NC(=O)C2(N)CCNCC2)cc1` [Compound 3, N-((R)-1-(5-(2-(1H-indol-2-yl)ethyl)-4-(4-methoxybenzyl)-4H-1,2,4-triazol-3-yl)-2-(1H-indol-3-yl)ethyl)-4-aminopiperidine-4-carboxamide] were, in that order, 16 nM, 4.4 nM and 106%.
`COc1ccc(Cn2c(CCc3ccccc3)nnc2[C@@H](Cc2c[nH]c3ccccc23)NC(=O)C2(N)CCNCC2)cc1` [Compound 4, N-((R)-1-(4-(4-methoxybenzyl)-5-phenethyl-4H-1,2,4-triazol-3-yl)-2-(1H-indol-3-yl)ethyl)-4-aminopiperidine-4-carboxamide] showed an IC50 at human GHS-R 1a [1] of 6.6 nM. Moreover, on human GHS-R 1a [2], the EC50 was 4.1 nM and the activation at 1 µM was 90%.
The like results for `COc1ccc(Cn2c(CCc3ccccc3)nnc2[C@@H](Cc2c[nH]c3ccccc23)NC(=O)c2ccccc2)c(OC)c1` [Compound 5, N-((R)-1-(4-(2,4-dimethoxybenzyl)-5-phenethyl-4H-1,2,4-triazol-3-yl)-2-(1H-indol-3-yl)ethyl)benzamide] were, in that order, 11.8 nM, 16 nM and 31%.
`COc1ccc(Cn2c(CCc3ccccc3)nnc2[C@@H](Cc2c[nH]c3ccccc23)NC(=O)c2cccc(CN)c2)c(OC)c1` [Compound 6, N-((R)-1-(4-(2,4-dimethoxybenzyl)-5-phenethyl-4H-1,2,4-triazol-3-yl)-2-(1H-indol-3-yl)ethyl)-3-(amino-methyl)benzamide] registered an IC50 on human GHS-R 1a [1] of 204 nM. Moreover, the activation at 1 µM at human GHS-R 1a [2] came to 4%.
In the case of `COc1ccc(Cn2c(CCc3ccccc3)nnc2[C@@H](Cc2c[nH]c3ccccc23)NC(=O)C2(N)CCNCC2)c(OC)c1` [Compound 10, N-((R)-1-(4-(2,4-dimethoxybenzyl)-5-phenethyl-4H-1,2,4-triazol-3-yl)-2-(1H-indol-3-yl)ethyl)-4-aminopiperidine-4-carboxamide], at human GHS-R 1a [1], the IC50 came out at 1.3 nM. Further, at human GHS-R 1a [2], the EC50 came out at 2 nM and the activation at 1 µM worked out at 100%.
Take `COc1ccc(Cn2c(CCc3c[nH]c4ccccc34)nnc2[C@@H](Cc2c[nH]c3ccccc23)NC(=O)c2cccc(CN)c2)cc1` [Compound 13, N-((R)-1-(5-(2-(1H-indol-3-yl)ethyl)-4-(4-methoxybenzyl)-4H-1,2,4-triazol-3-yl)-2-(1H-indol-3-yl)ethyl)-3-(amino-methyl)benzamide]: the IC50 at human GHS-R 1a [1] was 11.1 nM. Also, at human GHS-R 1a [2], the EC50 amounted to 2.5 nM and the activation at 1 µM came out at 70%.
In the case of `O=C(N[C@H](Cc1c[nH]c2ccccc12)c1nnc(CCc2ccccc2)n1Cc1cccc2ccccc12)C1CCNCC1` [Compound 15, N-((R)-2-(1H-indol-3-yl)-1-(4-((naphthalen-1-yl)methyl)-5-phenethyl-4H-1,2,4-triazol-3-yl)ethyl)piperidine-4-carboxamide], the IC50 at human GHS-R 1a [1] was 17 nM. In addition, at human GHS-R 1a [2], the EC50 worked out at 2 nM and the activation at 1 µM is 120%.
In turn, `O=C(N[C@H](Cc1c[nH]c2ccccc12)c1nnc(CCc2c[nH]c3ccccc23)n1Cc1cccc2ccccc12)C1CCNCC1` [Compound 17, N-((R)-1-(5-(2-(1H-indol-3-yl)ethyl)-4-((naphthalen-1-yl)methyl)-4H-1,2,4-triazol-3-yl)-2-(1H-indol-3-yl)ethyl)piperidine-4-carboxamide] gave an IC50 on human GHS-R 1a [1] of 4 nM. Moreover, at human GHS-R 1a [2], the EC50 is 2.4 nM and the activation at 1 µM is 94%.
At human GHS-R 1a [1], `O=C(N[C@H](Cc1c[nH]c2ccccc12)c1nnc(CCc2c[nH]c3ccccc23)n1Cc1cccc2ccccc12)c1ccccn1` [Compound 18, N-((R)-1-(5-(2-(1H-indol-3-yl)ethyl)-4-((naphthalen-1-yl)methyl)-4H-1,2,4-triazol-3-yl)-2-(1H-indol-3-yl)ethyl)picolinamide] came in with an IC50 of 5.3 nM. Moreover, the activation at 1 µM on human GHS-R 1a [2] is 1%.
`O=C(N[C@H](Cc1c[nH]c2ccccc12)c1nnc(Cc2ccccc2)n1Cc1ccc(Cl)c(Cl)c1)[C@@H]1CCCN1` [Compound 35, (2S)-N-((R)-1-(4-(3,4-dichlorobenzyl)-5-benzyl-4H-1,2,4-triazol-3-yl)-2-(1H-indol-3-yl)ethyl)pyrrolidine-2-carboxamide]: at human GHS-R 1a [2], the EC50 came to 17 nM and the activation at 1 µM came to 60%.
For `COc1ccc(Cn2c(CCc3ccccc3)nnc2[C@@H](Cc2cccc3ccccc23)NC(=O)c2ccccn2)cc1` [Compound 79, N-((R)-1-(4-(4-methoxybenzyl)-5-phenethyl-4H-1,2,4-triazol-3-yl)-2-(naphthalen-1-yl)ethyl)picolinamide], the IC50 at human GHS-R 1a [1] was 1.45 nM.
The same measure, in the same setting: next, `COc1ccc(Cn2c(CCc3ccccc3)nnc2[C@@H](Cc2cccc3ccccc23)NC(=O)C2CCCN2)cc1` (stereo partly drawn) [Compound 80, N-((R)-1-(4-(4-methoxybenzyl)-5-phenethyl-4H-1,2,4-triazol-3-yl)-2-(naphthalen-1-yl)ethyl)pyrrolidine-2-carboxamide]: 18.8 nM.
